Tests used:
[1] = system: methanogenesis in rumen liquor; test: In vitro test for methane production (modified Hohenheim Forage value Test); details: 8 h, 39° C., average of two experiments, vs control
Description: A modified version of the “Hohenheim Forage value Test (HFT)” was used for testing the effect of specific compounds on the rumen functions mimicked by this in-vitro system.
Feed is given into a syringe with a composition of rumen liquor and an appropriate mixture of buffers. The solution is incubated at 39° C. After 8 hours the quantity (and composition) of methane produced is measured and put into a formula for conversion.
• 6.2 g potassium dihydrogen phosphate (KH2PO4) • 0.6 g magnesium sulfate heptahydrate (MgSO4*7H2O) • 9 ml concentrated phosphoric acid (1 mol/l) • dissolved in distilled water to 1 l (pH about 1.6) Buffer Solution: • 35.0 g sodium hydrogen carbonate (NaHCO3) • 4.0 g ammonium hydrogen carbonate ((NH4)HCO3) • dissolved in distilled water to 1 l Trace Element Solution: • 13.2 g calcium chloride dihydrate (CaCl2*2H2O) • 10.0 g manganese(II) chloride tetrahydrate (MnCl2*4H2O) • 1.0 g cobalt(II) chloride hexahydrate (CoCl2*6H2O) • 8.0 g iron(III) chloride (FeCl3*6H2O) • dissolved in distilled water to 100 ml Sodium Salt Solution: • 100 mg sodium salt • dissolved in distilled water to 100 ml Reduction Solution: • first 3 ml sodium hydroxide (c=1 mol/l), then 427.5 mg sodium sulfide hydrate (Na2S*H2O) are added to 71.25 ml H2O • solution must be prepared shortly before it is added to the medium solution Procedure: Sample Weighing: • The feed stuff is sieved to 1 mm—usually TMR (44% concentrate, 6% hay, 37% maize silage and 13% grass silage)—and weighed exactly into 64 syringes. 4 of these syringes are the substrate controls, which display the gas production without the effect of the tested compounds. 4 other syringes are positive control, in which bromoethane sulfonate has been added to 0.1 mM. When needed, 4 syringes contain a carrier control (if the test compounds need a carrier). The remaining syringes contain the test substances, by groups of 4 syringes. Preparation of the Medium Solution:
The components are mixed in a Woulff bottle in following order: • 711 ml water • 0.18 ml trace element solution • 355.5 ml buffer solution • 355.5 ml mass element solution • The completed solution is warmed up to 39° C. followed by the addition of 1.83 ml sodium salt solution and the addition of reduction solution at 36° C. The rumen liquor is added, when the indicator turns colourless. Extraction of the Rumen Liquor: • 750 ml of rumen liquor are added to approximately 1,400 ml of medium solution under continued agitation and CO2-gassing. Filling the Syringes, Incubation and Determining Gas Volumes and VFA Values: • The diluted rumen fluid (24 ml) is added to the glass syringe. The syringes are then incubated for 8 hours at 39° C. under gentle agitation. After 8 hours, the volume of gas produced is measured, and the percentage of methane in the gas phase is determined by gas chromatography. Results
The food fermented was artificial TMR (44% concentrate, 6% hay, 37% maize silage and 13% grass silage). The compounds produced as described in examples 3 to 20 were added to the fermentation syringes to a concentration of 2 to 0.01% of dry matter (DM).

[2] = Stability of the isolated compound (1H NMR); assay type: physicochemical; details: for degradation on storage: after 1 week at room temperature, repurified compound; for degradation on drying (1H NMR): dried at 60° C. under reduced pressure for 18 hours
Description: The final compound was dried at 60° C. under reduced pressure for 18 hours. […] The degraded compound was adsorbed on silica gel and purified by flash chromatography [Biotage®, dichloromethane/methanol 100/0→98/2 (15CV), 98/2 (4CV)] affording compound 3 as a light yellow liquid (0.59 g, yield=33%).
The final compound was dried at 60° C. under reduced pressure for 18 hours. […] The degraded compound was adsorbed on silica gel and purified by flash chromatography [Biotage®, dichloromethane/methanol 100/0→98/2 (12CV), 98/2 (6CV)] affording compound 3 as a white solid (0.90 g, yield=70%).

Row | SMILES | effect on methanogenesis (%) ([1]; 0.05% DM) | effect on methanogenesis (%) ([1]; 0.1% DM) | effect on methanogenesis (%) ([1]; 0.25% DM) | effect on methanogenesis (%) ([1]; 0.5% DM) | effect on methanogenesis (%) ([1]; 1% DM) | effect on methanogenesis (%) ([1]; 2% DM) | effect on methanogenesis (%) ([1]; 0.01% DM) | degradation on storage [2] | degradation on drying (1H NMR) [2]
1 | CCOC(=O)CCO[N+](=O)[O-] [drawing 19] | −18% | −63% | −100% | −100% | −100% | −100% |  |  | 
2 | O=C(O)CCCCO[N+](=O)[O-] | −100% | −100% |  | −100% |  | −100% | −23% |  | 
3 | CCOC(=O)C(C)O[N+](=O)[O-] (stereo not shown) | −2% |  |  | −33% |  | −100% |  |  | 
4 | CCOC(=O)CCCCCCCCCCO[N+](=O)[O-] | −48% | −99% |  |  |  |  | −8% |  | 
5 | O=[N+]([O-])[O-].[Na+] [Na NO3, reference compound] |  |  |  | −2% |  | −23% |  |  | 
6 | COC(=O)CCO[N+](=O)[O-] | −64% |  |  | −100% |  | −100% | −12% |  | 
7 | CCOC(=O)CCCO[N+](=O)[O-] | −55% | −82% |  | −100% |  | −100% | −6% |  | 
8 | O=C(O)CCCO[N+](=O)[O-] |  |  |  |  |  | 2% |  |  | 
9 | CNC(=O)CCCCO[N+](=O)[O-] [Example 18, 5-Nitrooxy-pentanoic acid methylamide] |  |  |  |  |  |  |  | No further degradation was observed | Degradation was observed
10 | CCOC(=O)CO[N+](=O)[O-] | −1% | −1% |  |  |  |  |  |  | 
11 | CNC(=O)CCCCO[N+](=O)[O-] [drawing 37] |  | −100% |  |  | −98% |  | −2% |  | 
12 | NC(=O)CCCCO[N+](=O)[O-] [drawing 36] |  | −99% |  |  | −98% |  | −2% |  | 
13 | CCOC(=O)CCCCO[N+](=O)[O-] | −87% |  |  | −100% |  | −100% | −28% |  | 
14 | O=C(O)CCO[N+](=O)[O-] | −98% | −100% |  | −100% |  | −100% | −8% |  | 
15 | CCOC(=O)CCCCCCCO[N+](=O)[O-] | −96% | −99% |  |  |  |  | −12% |  | 
16 | O=C(O)CCCCCCCO[N+](=O)[O-] | −76% | −100% |  |  |  |  | −7% |  | 
17 | O=C(O)CCCCCO[N+](=O)[O-] | −99% | −100% |  |  |  |  | −10% |  | 
18 | CCOC(=O)CC(C)O[N+](=O)[O-] (stereo not shown) | −17% |  |  | −100% |  | −100% |  |  | 
19 | CC(C)(CO[N+](=O)[O-])C(=O)O |  |  |  | −49% |  | −100% |  |  | 
20 | CCOC(=O)C1CCC(O[N+](=O)[O-])CC1 (stereo not shown) | −2% | −88% |  |  | −98% |  |  |  | 
21 | CCOC(=O)CCCCCO[N+](=O)[O-] | −78% | −100% |  |  |  |  | −3% |  | 
22 | O=C(O)CCCCCCCCCCO[N+](=O)[O-] | −52% | −99% |  |  |  |  | −13% |  | 
23 | NC(=O)CCCCO[N+](=O)[O-] [Example 20, 5-Nitrooxy-pentanoic acid amide] |  |  |  |  |  |  |  | No further degradation was observed | Degradation was observed

Source: patent US9365489B2, “Nitrooxy alkanoic acids and derivatives thereof in feed for reducing methane emission in ruminants, and/or to improve ruminant performance” (priority 2009, dated 2016)
